# In US20200384124A1, “VECTOR FOR PHARMACOLOGICALLY ACTIVE MATER-INSOLUBLE MOLECULES, AND PROCESS OF PREPARING SAME” (priority 2017, published 2020):
# Legend:
# U-87 MG spheroids [1] = test: 3D culture spheroid viability by Alamar Blue test; assay type: cell-based, human; settings: 2.8 times the IC50, Alamar Blue
# Protocol: Spheroids (cells in 3D culture) help to better represent the tumor environment. They are composed of necrotic cells in their center and proliferating cells in the periphery. […] The cells are maintained at 37° C. and 5% of CO2 and 10 μl of fresh medium are added every two days to all the wells (controls and treated). […] This measurement is done in one step and uses a reagent based on resazurin, which is reduced by living cells. The reduced compound (=resofurin) is detectable by fluorescence (λex=584 nm and λem=620 nm) and the signal measured is proportional to the number of living cells. Once the above treatment has been set up, 10 μL of Alamar Blue are added to each well 7 days or 14 days after treatment and the cells are incubated 12 h before the fluorescence measurement. The data are obtained by reading the fluorescence with POLARstar Omega (BMG LABETCH) after excitation at 584 nm and reading the emission at 620 nm.
# U-87 MG cells = test: MTT cytotoxicity test of PTX and NPC2-PTX (2D); assay type: cell-based, human
# Protocol: The volume of seeding and treatment is maintained at 150 μL per well and each condition is carried out with a conventional incubation at 37° C. […] This test uses as reagent 3-(4,5-Dimethylthiazol-2-yl)-2,5-Diphenyltetrazolium Bromide (MTT), which is converted into formazan (crystal violet) by living cells. The latter absorbent at the wavelength of 600 nm is detectable by an absorbance measurement.
# (§1) As soon as the formazan crystals are visible in the cells under a light field microscope, the medium is replaced by 150 μl of dimethylsulfoxide (DMSO). The cells are then lysed, the formazan crystals dissolved, and the absorbance is measured with a Multiskan spectrophotometer (Ascent, Labtec Systems with a filter at 600 nm.
# (§2) The percentage of viability is obtained by comparing the absorbance value of the treated cells with the absorbance value of the untreated control cells, which is considered as a reference and equivalent to 100% of viability. The standard deviation is calculated from 3 independent experiments.
# SK-N-SH cells = test: MTT cytotoxicity test of PTX and NPC2-PTX (2D); assay type: cell-based; settings: Homo sapiens, 72 h
# Protocol: (§3) The volume of seeding and treatment is maintained at 150 μL per well and each condition is carried out with a conventional incubation at 37° C. A cell viability test is carried out by an MTT test after 72 h of treatment. This test uses as reagent 3-(4,5-Dimethylthiazol-2-yl)-2,5-Diphenyltetrazolium Bromide (MTT), which is converted into formazan (crystal violet) by living cells. The latter absorbent at the wavelength of 600 nm is detectable by an absorbance measurement.
# as §1, §2
# HMEC-1 cells = test: MTT cytotoxicity test of PTX and NPC2-PTX (2D); assay type: cell-based; settings: Homo sapiens, HMEC-1, 72 h
# Protocol: as §3, §1, §2
# [2] = tested on: microtubular network in U-87-MG and HMEC-1 cells; test: Indirect immunofluorescence of tubulin, comparison with PTX (Example 24); assay type: cell-based, human; settings: 10, 50 and 100 nM, 6 h of treatment
# Protocol: The U-87-MG and HMEC-1 cells are seeded on Lab-Tek® culture chambers (Nunc). […] After 6 h of treatment, the medium is replaced by a solution of ice-cold methanol making it possible to fix and permeabilize the cells. […] The labeling of the nucleus is carried out with a solution of DAPI or 4,6-diamidino-2-phenylindole (0.25 μg/ml; Sigma) for 2 min. The blade is finally mounted with Prolong® (Invitrogen) antifading. The observation is carried out with an epifluorescence microscope (Leica DM-IRBE) coupled with a digital camera (Princeton Instruments; CCD camera coolsnap FX).
# U-87 MG spheroids [3] = test: 3D culture spheroid size by optical microscopy; assay type: cell-based, human
# Protocol: Spheroids (cells in 3D culture) help to better represent the tumor environment. They are composed of necrotic cells in their center and proliferating cells in the periphery. […] The cells are maintained at 37° C. and 5% of CO2 and 10 μl of fresh medium are added every two days to all the wells (controls and treated). […] Before treatment and then every two days, the spheroids are observed under an optical microscope coupled to a camera (Nikon ECLIPSE TS100), at magnification*4.;
smiles,measurement,setting,value
"CC(=O)O[C@H]1C(=O)[C@@]2(C)[C@H]([C@H](OC(=O)c3ccccc3)[C@]3(O)C[C@H](OC(=O)[C@H](O)[C@@H](NC(=O)c4ccccc4)c4ccccc4)C(C)=C1C3(C)C)[C@]1(OC(C)=O)CO[C@@H]1C[C@@H]2O [PTX, paclitaxel]",decrease / inhibition of cell viability in 3D,U-87 MG spheroids [1],10%
same,inhibition of cell viability in 2D,U-87 MG cells; 2.8 times the IC50,70%
same,IC50,"U-87 MG cells; Homo sapiens, U-87 MG, 72 h",9.2 ± 1.2 nM
same,IC50,SK-N-SH cells,40.5 ± 7.8 nM
same,IC50,HMEC-1 cells,5.7 ± 2 nM
same,effects on microtubular network and cell shape,[2],the microtubular network is disturbed
same,diameter of the spheroid at day 14,"U-87 MG spheroids [3]; 2.8 times IC50 (PTX 25 nM, NPC2-PTX 70 nM)",757+/−22 μm
same,diameter of the spheroid at day 14,"U-87 MG spheroids [3]; 4 times the IC50 (PTX 40 nM, NPC2-PTX 100 nM)",389+/−33 μm
same,diameter of the spheroid at day 14,"U-87 MG spheroids [3]; IC50 calculated in 2D (PTX 9 nM, NPC2-PTX 25 nM)",800+/−11 μm
